Results: US9751858B2, “3-heteroaroylamino-propionic acid derivatives and their use as pharmaceuticals” (SANOFI, priority 2011, dated 2017)

Target: T1, Recombinant human cathepsin A (Homo sapiens, UniProt P10619)
T1 construct: Recombinant human cathepsin A (residues 29-480, with a C-terminal 10-His tag); 10-His (C); purchased R&D Systems 1049-SE
T1 sequence (P10619 29-326 limits assumed): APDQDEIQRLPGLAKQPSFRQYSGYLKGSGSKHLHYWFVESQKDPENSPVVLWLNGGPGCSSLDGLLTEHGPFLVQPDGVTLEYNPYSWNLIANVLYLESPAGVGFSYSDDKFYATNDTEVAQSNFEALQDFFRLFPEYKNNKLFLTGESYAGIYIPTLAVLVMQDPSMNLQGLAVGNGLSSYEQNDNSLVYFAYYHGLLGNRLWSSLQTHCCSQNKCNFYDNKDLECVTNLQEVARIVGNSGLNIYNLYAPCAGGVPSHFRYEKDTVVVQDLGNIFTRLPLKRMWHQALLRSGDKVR
T1 sequence (P10619 327-480 limits assumed): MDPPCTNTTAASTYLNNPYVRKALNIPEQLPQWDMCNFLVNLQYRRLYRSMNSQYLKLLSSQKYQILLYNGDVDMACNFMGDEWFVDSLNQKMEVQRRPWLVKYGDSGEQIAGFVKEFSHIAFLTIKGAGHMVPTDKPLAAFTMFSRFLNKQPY
Assay: Cathepsin A inhibitory activity
Format: biochemical
Details: activated recombinant human cathepsin A 833 ng/ml, Bodipy FL-labeled bradykinin 2 μM, pH 5.5, 15 min room temperature
Procedure: a) Cathepsin a Inhibitory Activity
Briefly, cathepsin A was incubated at 10 μg/ml with cathepsin L at 1 μg/ml in activation buffer (25 mM 2-(morpholin-4-yl)-ethanesulfonic acid (MES), pH 6.0, containing 5 mM dithiothreitol (DTT)) for 15 min at 37° C.
The activated cathepsin A was diluted in assay buffer (25 mM MES, pH 5.5, containing 5 mM DTT) and mixed with the test compound (dissolved in assay buffer containing (v/v) 3% DMSO) or, in the control experiments, with the vehicle in a multiple assay plate. After incubation for 15 min at room temperature, as substrate then bradykinin carrying an N-terminal ®Bodipy FL (4,4-difluoro-5,7-dimethyl-4-bora-3a,4a-diaza-s-indacene-3-propionyl) label (JPT Peptide Technologies GmbH; dissolved in assay buffer) was added to the mixture. […] After incubation for 15 min at room temperature the reaction was stopped by the addition of stop buffer (130 mM 2-(4-(2-hydroxy-ethyl)-piperazin-1-yl)-ethanesulfonic acid, pH 7.4, containing (v/v) 0.013%® Triton X-100, 0.13% Coating Reagent 3 (Caliper Life Sciences), 6.5% DMSO and 20 μM ebelactone B (Sigma, # E0886)).
Uncleaved substrate and product were then separated by a microfluidic capillary electrophoresis on a LabChip® 3000 Drug Discovery System (12-Sipper-Chip; Caliper Life Sciences) and quantified by determination of the respective peak areas. Substrate turnover was calculated by dividing product peak area by the sum of substrate and product peak areas, and the enzyme activity and the inhibitory effect of the test compound thus quantified.

IC50 [µM]	Compound
1.47	CC(C)c1oc(-c2ccccc2)nc1C(=O)NC(CC(=O)O)C1CCCCC1 (stereo not shown) [Example 34, 3-Cyclohexyl-3-[(5-isopropyl-2-phenyl-oxazole-4-carbonyl)-amino]-propionic acid]
5.14	Cc1oc(-c2ccccc2F)nc1C(=O)N[C@@H](CC(=O)O)c1ccccc1F [Example 35, (S)-3-(2-Fluoro-phenyl)-3-{[2-(2-fluoro-phenyl)-5-methyl-oxazole-4-carbonyl]-amino}-propionic acid]
0.198	Cc1oc(-c2ccccc2F)nc1C(=O)N[C@@H](CC(=O)O)c1cccc(F)c1 [Example 36, (S)-3-(3-Fluoro-phenyl)-3-{[2-(2-fluoro-phenyl)-5-methyl-oxazole-4-carbonyl]-amino}-propionic acid]
4.2	Cc1oc(-c2ccccc2F)nc1C(=O)N[C@@H](CC(=O)O)c1ccc(F)cc1 [Example 37, (S)-3-(4-Fluoro-phenyl)-3-{[2-(2-fluoro-phenyl)-5-methyl-oxazole-4-carbonyl]-amino}-propionic acid]
6	Cc1ccc([C@H](CC(=O)O)NC(=O)c2noc(-c3cccc(F)c3F)n2)cc1 [Example 38, (S)-3-{[5-(2,3-Difluoro-phenyl)-[1,2,4]oxadiazole-3-carbonyl]-amino}-3-p-tolyl-propionic acid]
9.37	Cc1cccc([C@H](CC(=O)O)NC(=O)c2noc(-c3cccc(F)c3F)n2)c1 [Example 39, (S)-3-{[5-(2,3-Difluoro-phenyl)-[1,2,4]oxadiazole-3-carbonyl]-amino}-3-m-tolyl-propionic acid]
1.94	C[C@@](CC(=O)O)(NC(=O)c1noc(-c2cccc(F)c2F)n1)c1ccccc1 [Example 40, (S)-3-{[5-(2,3-Difluoro-phenyl)-[1,2,4]oxadiazole-3-carbonyl]-amino}-3-phenyl-butyric acid]
13.4	O=C(O)C[C@@H](Cc1ccccc1)NC(=O)c1noc(-c2cccc(F)c2F)n1 [Example 41, (R)-3-{[5-(2,3-Difluoro-phenyl)-[1,2,4]oxadiazole-3-carbonyl]-amino}-4-phenyl-butyric acid]
> 10	Cc1ccccc1[C@H](CC(=O)O)NC(=O)c1noc(-c2cccc(F)c2F)n1 [Example 42, (S)-3-{[5-(2,3-Difluoro-phenyl)-[1,2,4]oxadiazole-3-carbonyl]-amino}-3-o-tolyl-propionic acid]
0.107	O=C(O)C[C@H](NC(=O)c1noc(-c2cccc(F)c2F)n1)c1ccccc1F [Example 43, (S)-3-{[5-(2,3-Difluoro-phenyl)-[1,2,4]oxadiazole-3-carbonyl]-amino}-3-(2-fluoro-phenyl)-propionic acid]
5.33	O=C(O)C[C@H](NC(=O)c1noc(-c2cccc(F)c2F)n1)c1ccc(F)cc1 [Example 44, (S)-3-{[5-(2,3-Difluoro-phenyl)-[1,2,4]oxadiazole-3-carbonyl]-amino}-3-(4-fluoro-phenyl)-propionic acid]
8.88	CC(C)c1oc(-c2ccccc2)nc1C(=O)NC(CC(=O)O)Cc1ccccc1 (stereo not shown) [Example 45, 3-[(5-Isopropyl-2-phenyl-oxazole-4-carbonyl)-amino]-4-phenyl-butyric acid]
> 10	Cc1ccccc1[C@H](CC(=O)O)NC(=O)c1cc(S(=O)(=O)N(C)C)oc1C [Example 46, (S)-3-[(5-Dimethylsulfamoyl-2-methyl-furan-3-carbonyl)-amino]-3-o-tolyl-propionic acid]
2.18	CC(C)c1oc(-c2ccccc2)nc1C(=O)N[C@@H](CC(=O)O)c1ccccc1F [Example 47, (S)-3-(2-Fluoro-phenyl)-3-[(5-isopropyl-2-phenyl-oxazole-4-carbonyl)-amino]-propionic acid]
1.82	CC(C)c1oc(-c2ccccc2)nc1C(=O)N[C@@H](CC(=O)O)c1ccc(F)cc1 [Example 48, (S)-3-(4-Fluoro-phenyl)-3-[(5-isopropyl-2-phenyl-oxazole-4-carbonyl)-amino]-propionic acid]
> 10	O=C(O)C[C@@H](Cc1ccccc1)NC(=O)CCc1nc(-c2ccccc2F)no1 [Example 49, (R)-3-{3-[3-(2-Fluoro-phenyl)-[1,2,4]oxadiazol-5-yl]-propionylamino}-4-phenyl-butyric acid]

IC50 [µM]	Compound
> 10	Cc1cccc([C@H](CC(=O)O)NC(=O)CCc2nc(-c3ccccc3F)no2)c1 [Example 50, (S)-3-{3-[3-(2-Fluoro-phenyl)-[1,2,4]oxadiazol-5-yl]-propionylamino}-3-m-tolyl-propionic acid]
> 10	C[C@@](CC(=O)O)(NC(=O)CCc1nc(-c2ccccc2F)no1)c1ccccc1 [Example 51, (S)-3-{3-[3-(2-Fluoro-phenyl)-[1,2,4]oxadiazol-5-yl]-propionylamino}-3-phenyl-butyric acid]
> 10	Cc1ccc([C@H](CC(=O)O)NC(=O)CCc2nc(-c3ccccc3F)no2)cc1 [Example 52, (S)-3-{3-[3-(2-Fluoro-phenyl)-[1,2,4]oxadiazol-5-yl]-propionylamino}-3-p-tolyl-propionic acid]
> 10	Cc1ccccc1[C@H](CC(=O)O)NC(=O)CCc1nc(-c2ccccc2F)no1 [Example 53, (S)-3-{3-[3-(2-Fluoro-phenyl)-[1,2,4]oxadiazol-5-yl]-propionylamino}-3-o-tolyl-propionic acid]
16.7	O=C(N[C@H](C(=O)O)C1CCCCC1)c1noc(-c2cnccc2C(F)(F)F)n1 [Example 54, (S)-Cyclohexyl-{[5-(4-trifluoromethyl-pyridin-3-yl)-[1,2,4]oxadiazole-3-carbonyl]-amino}-acetic acid]
0.738	Cc1ccc([C@H](CC(=O)O)NC(=O)c2nc(C)n(-c3ccccc3Cl)n2)cc1 [Example 55, (S)-3-{[1-(2-Chloro-phenyl)-5-methyl-1H-[1,2,4]triazole-3-carbonyl]-amino}-3-p-tolyl-propionic acid]
1.68	CCc1nc(C(=O)N[C@@H](CC(=O)O)c2ccccc2)nn1-c1ccccc1Cl [Example 56, (S)-3-{[1-(2-Chloro-phenyl)-5-ethyl-1H-[1,2,4]triazole-3-carbonyl]-amino}-3-phenyl-propionic acid]
0.261	Cc1ccccc1[C@H](CC(=O)O)NC(=O)c1nc(C)n(-c2ccccc2Cl)n1 [Example 57, (S)-3-{[1-(2-Chloro-phenyl)-5-methyl-1H-[1,2,4]triazole-3-carbonyl]-amino}-3-o-tolyl-propionic acid]
> 10	O=C(O)C[C@H](NC(=O)CCc1nc(-c2ccccc2F)no1)c1ccc(F)cc1 [Example 58, (S)-3-(4-Fluoro-phenyl)-3-{3-[3-(2-fluoro-phenyl)-[1,2,4]oxadiazol-5-yl]-propionylamino}-propionic acid]
0.337	O=C(O)C[C@H](NC(=O)CCc1nc(-c2ccccc2F)no1)c1ccccc1F [Example 59, (S)-3-(2-Fluoro-phenyl)-3-{3-[3-(2-fluoro-phenyl)-[1,2,4]oxadiazol-5-yl]-propionylamino}-propionic acid]
22.4	O=C(O)C[C@H](NC(=O)CCc1nc(-c2ccccc2F)no1)c1cccc(F)c1 [Example 60, (S)-3-(3-Fluoro-phenyl)-3-{3-[3-(2-fluoro-phenyl)-[1,2,4]oxadiazol-5-yl]-propionylamino}-propionic acid]
0.189	Cc1oc(-c2ccccc2F)nc1C(=O)N[C@@H](CC(=O)O)c1cccc(Cl)c1 [Example 61, (S)-3-(3-Chloro-phenyl)-3-{[2-(2-fluoro-phenyl)-5-methyl-oxazole-4-carbonyl]-amino}-propionic acid]
3.41	Cc1oc(-c2ccccc2F)nc1C(=O)NC(CC(=O)O)c1ccccc1Cl (stereo not shown) [Example 62, 3-(2-Chloro-phenyl)-3-{[2-(2-fluoro-phenyl)-5-methyl-oxazole-4-carbonyl]-amino}-propionic acid]
3.41	Cc1oc(-c2ccccc2F)nc1C(=O)N[C@@H](CC(=O)O)c1ccc(Cl)cc1 [Example 63, (S)-3-(4-Chloro-phenyl)-3-{[2-(2-fluoro-phenyl)-5-methyl-oxazole-4-carbonyl]-amino}-propionic acid]
> 10	CCCS(=O)(=O)Nc1cn(C)nc1C(=O)N[C@@H](CC(=O)O)c1ccccc1C [Example 64, (S)-3-{[1-Methyl-4-(propane-1-sulfonylamino)-1H-pyrazole-3-carbonyl]-amino}-3-o-tolyl-propionic acid]
